{"source": "patent US12171901B2", "about": "“Powdered collagen wound care compositions” (priority 2021, dated 2024)", "system": "skin of female albino New Zealand White rabbits", "assay": "Rabbit skin irritation", "description": "Within 24 hours to 4 hours before test application, the backs of female albino New Zealand White rabbits were clipped free of hair, exposing 2 test and 2 control areas on each side of the spine with a size of approximately 15 cm×15 cm. The two test sites are located on the left cranial section and the right caudal section of the dorsal region. The two control sites are located on the left caudal and right cranial section of the dorsal region. FIG. 2 depicts the arrangement of test and control sites. The exposed skin is wiped with alcohol and dried. Rabbits of acceptable skin quality were selected and used for testing.\nA 25×25 mm gauze patch saturated with 0.5 mL of 0.9% NaCl is used for the control and applied to the clipped control sites. The patches are secured using hypoallergenic, waterproof, surgical tape over the test and control sites. The animal's trunk is securely wrapped so as to maintain the position of the patches. Patches are left applied for a minimum of four hours.\nAfter patch removal, the test and control sites were then scored for erythema and edema at 1, 24, 48 and 72 hours after patch removal. Only the 24, 48, and 72 hour observations were scored and used for calculations. If no response was expected, testing was conducted using three animals per test article. If irritation was anticipated, one animal was tested initially. If the first animal received a score of 2 or less for either erythema or edema, 2 additional rabbits were used to conclude the test.\nThis total was divided by the total number of observations. The same was done for the control sites. […] These scores for each animal were added and divided by the total number of animals to give the Primary Irritation Index. […] For any response, the Maximum Irritation Response, the time of onset of the response and the time of maximum response was recorded.\nTo positively validate the test, 10% sodium dodecyl sulfate (SDS), which is a known dermal irritant, in petroleum jelly was applied to a 2.5 cm×2.5 cm gauze patch. As a negative control, 0.5 mL of 0.9% NaCl was applied to a 2.5 cm×2.5 cm gauze patch. A Primary Irritation Index in the moderate to severe range is considered a positive result. The test system and methods utilized were the same as described above.", "key": {"[1]": {"conditions": "per rabbit, 24, 48 and 72 hour observations after patch removal, direct application, sulfate"}}, "note": "Where “and” joins values, the source holds several entries; their conditions need not be identical. Equal values may be shown once."}
{"smiles": "CCCCCCCCCCCCOS(=O)(=O)[O-].[Na+]", "note": "[10% SDS, sodium dodecyl sulfate]", "values": [{"measurement": "Primary Irritation Index", "setting": "3 animals", "value": 6.4}, {"measurement": "Total Average (sum over animals)", "setting": "3 animals", "value": 19.3}, {"measurement": "ED (edema) score sum", "setting": "[1]", "value": "19 and 21 and 14"}, {"measurement": "ER (erythema) score sum", "setting": "[1]", "value": "21 and 23 and 18"}, {"measurement": "ER + ED = Total", "setting": "[1]", "value": "40 and 44 and 32"}]}
